Converted amounts (≈) assume the structure as drawn.
Tests used:
Format in all cases: functional
Aspergillus niger = experiment: Antifungal activity against Aspergillus niger MTCC 282 by broth microdilution method
[1] = system: Mycobacterium tuberculosis; experiment: Growth inhibition of Mycobacterium tuberculosis H37Rv MTCC 200 at 259 ug/ml after 28 days by Lowenstein-Jensen method; details: H37Rv MTCC 200, 672 h, read-out: GI
Streptococcus pyogenes = experiment: Antibacterial activity against Streptococcus pyogenes MTCC 442 after overnight incubation by broth dilution method
Escherichia coli = experiment: Antibacterial activity against Escherichia coli MTCC 443 after overnight incubation by broth dilution method
Pseudomonas aeruginosa = experiment: Antibacterial activity against Pseudomonas aeruginosa MTCC 1688 after overnight incubation by broth dilution method
Bacillus subtilis = experiment: Antibacterial activity against Bacillus subtilis MTCC 441 after overnight incubation by broth dilution method
Candida albicans = experiment: Antifungal activity against Candida albicans MTCC 227 by broth microdilution method
Salmonella typhimurium = experiment: Antibacterial activity against Salmonella enterica subsp. enterica serovar Typhimurium MTCC 98 after overnight incubation by broth dilution method
Klebsiella pneumoniae = experiment: Antibacterial activity against Klebsiella pneumoniae MTCC 109 after overnight incubation by broth dilution method
Aspergillus clavatus = experiment: Antifungal activity against Aspergillus clavatus MTCC 1323 by broth microdilution method
Staphylococcus aureus = experiment: Antibacterial activity against Staphylococcus aureus MTCC 96 after overnight incubation by broth dilution method
[2] = system: Mycobacterium tuberculosis; experiment: Growth inhibition of Mycobacterium tuberculosis H37Rv MTCC 200 at 40 ug/ml after 28 days by Lowenstein-Jensen method
[3] = system: Mycobacterium tuberculosis; experiment: Growth inhibition of Mycobacterium tuberculosis H37Rv MTCC 200 at 0.2 ug/ml after 28 days by Lowenstein-Jensen method; details: H37Rv MTCC 200, 672 h, read-out: GI
[4] = system: Mycobacterium tuberculosis; experiment: Growth inhibition of Mycobacterium tuberculosis H37Rv MTCC 200 at 62.5 ug/ml after 28 days by Lowenstein-Jensen method; details: H37Rv MTCC 200, 672 h, read-out: GI
[5] = system: Mycobacterium tuberculosis; experiment: Growth inhibition of Mycobacterium tuberculosis H37Rv MTCC 200 at 500 ug/ml after 28 days by Lowenstein-Jensen method; details: H37Rv MTCC 200, 672 h, read-out: GI
[6] = system: Mycobacterium tuberculosis; experiment: Growth inhibition of Mycobacterium tuberculosis H37Rv MTCC 200 at 270 ug/ml after 28 days by Lowenstein-Jensen method; details: H37Rv MTCC 200, 672 h, read-out: GI

Compound	MIC99 (Aspergillus niger) [µg/mL]	inhibition of growth at 259 µg/mL [1] [%]	MIC99 (Streptococcus pyogenes) [µg/mL]	MIC99 (Escherichia coli) [µg/mL]	MIC99 (Pseudomonas aeruginosa) [µg/mL]	MIC99 (Bacillus subtilis) [µg/mL]	MIC99 (Candida albicans) [µg/mL]	MIC99 (Salmonella typhimurium) [µg/mL]	MIC99 (Klebsiella pneumoniae) [µg/mL]	MIC99 (Aspergillus clavatus) [µg/mL]	MIC99 (Staphylococcus aureus) [µg/mL]	inhibition of growth at 40 µg/mL ([2]; H37Rv MTCC 200, 672 h, read-out: GI) [%]	inhibition of growth at 0.2 µg/mL [3] [%]	inhibition of growth at 62.5 µg/mL [4] [%]	inhibition of growth at 500 µg/mL [5] [%]	growth inhibition (GI) [2] [%]	inhibition of growth at 270 µg/mL [6] [%]
COc1ccc(C2C(Cl)C(=O)N2NCc2nc3ccccc3c(=O)n2NC(=O)c2ccncc2)cc1 (stereo not given)	250 (≈ 495 µM)	98	200 (≈ 396 µM)	500 (≈ 990 µM)	500 (≈ 990 µM)	250 (≈ 495 µM)	200 (≈ 396 µM)	500 (≈ 990 µM)	62.5 (≈ 124 µM)	200 (≈ 396 µM)	125 (≈ 248 µM)	–	–	–	–	–	–
NYSTATIN	100	–	–	–	–	–	100	–	–	100	–	–	–	–	–	–	–
CO[C@H]1/C=C/O[C@@]2(C)Oc3c(C)c(O)c4c(O)c(c(/C=N/N5CCN(C)CC5)c(O)c4c3C2=O)NC(=O)/C(C)=C\C=C\[C@H](C)[C@H](O)[C@@H](C)[C@@H](O)[C@@H](C)[C@H](OC(C)=O)[C@@H]1C [RIFAMPIN]	–	–	–	–	–	–	–	–	–	–	–	98	–	–	–	–	–
COC1=CC(=O)C[C@@H](C)[C@]12Oc1c(Cl)c(OC)cc(OC)c1C2=O [GRISEOFULVIN]	100 (≈ 283 µM)	–	–	–	–	–	500 (≈ 1420 µM)	–	–	100 (≈ 283 µM)	–	–	–	–	–	–	–
NNC(=O)c1ccncc1 [ISONIAZID]	–	–	–	–	–	–	–	–	–	–	–	–	99	–	–	–	–
O=C(Nn1c(CNN2C(=O)C(Cl)C2c2ccc(Cl)cc2)nc2ccccc2c1=O)c1ccncc1 (stereo not given)	1000 (≈ 1960 µM)	–	500 (≈ 982 µM)	50 (≈ 98.2 µM)	100 (≈ 196 µM)	250 (≈ 491 µM)	250 (≈ 491 µM)	100 (≈ 196 µM)	100 (≈ 196 µM)	1000 (≈ 1960 µM)	500 (≈ 982 µM)	–	–	99	–	–	–
O=C(Nn1c(CNN2C(=O)C(Cl)C2c2ccccc2)nc2ccccc2c1=O)c1ccncc1 (stereo not given)	500 (≈ 1050 µM)	–	250 (≈ 526 µM)	200 (≈ 421 µM)	125 (≈ 263 µM)	100 (≈ 211 µM)	1000 (≈ 2110 µM)	200 (≈ 421 µM)	200 (≈ 421 µM)	500 (≈ 1050 µM)	250 (≈ 526 µM)	–	–	–	98	–	–
O=C(N[C@H](CO)[C@H](O)c1ccc([N+](=O)[O-])cc1)C(Cl)Cl [CHLORAMPHENICOL]	–	–	50 (≈ 155 µM)	50 (≈ 155 µM)	50 (≈ 155 µM)	–	–	50 (≈ 155 µM)	50 (≈ 155 µM)	–	50 (≈ 155 µM)	–	–	–	–	–	–
GENTAMICIN	–	–	0.5	0.05	1	–	–	1	0.05	–	0.25	–	–	–	–	98	–
O=C(Nn1c(CNN2C(=O)C(Cl)C2c2cccc([N+](=O)[O-])c2)nc2ccccc2c1=O)c1ccncc1 (stereo not given)	> 1000	–	500 (≈ 962 µM)	250 (≈ 481 µM)	250 (≈ 481 µM)	200 (≈ 385 µM)	1000 (≈ 1920 µM)	250 (≈ 481 µM)	500 (≈ 962 µM)	> 1000	500 (≈ 962 µM)	–	–	–	–	–	97
